“Also recorded” adds a separate entry of the source.
Legend:
[1] = Safety and adverse event (AE) profile, Phase 2 trial of oral squalamine (ENT-01); assay type: in vivo, human
Description: (§1) Tolerability limits included diarrhea or vomiting.
(§2) In Stage 2, 34 patients were evaluated.

[2] = system: patients with PD and constipation; assay: Effect on bowel function (prokinetic response, stool diary indices), Phase 2 trial; assay type: in vivo, human; conditions: patients with baseline ≥1 CSBM/week
Description: Following successful screening, all subjects underwent a 14-day run-in period where the degree of constipation was assessed through a validated daily log (Zinsmeister et al. 2013) establishing baseline CSBMs/week. Subjects with an average of <3 CSBMs/week proceeded to dosing.
as §1, §2
The primary efficacy outcome variable was whether or not a subject was a “success” or “failure”. This is an endpoint based on subject diary entries for the “fixed dose” period prior to the endpoint assessment defined as average complete stool frequency increase by 1 or more over baseline, or 3 or more complete spontaneous stools/week. The subject was deemed a “success” if s/he met one or more of the criteria listed above, otherwise the subject was deemed a “failure”. The primary analysis was based on all subjects with a baseline assessment and an assessment at the end of the “fixed-dose” period and was a comparison of the proportion of successes with 0.10 (the null hypothesis corresponding to no treatment effect).

patients with PD [3] = assay: CNS symptoms in Stage 2 (UPDRS, MMSE, PDHQ, BDI-II); assay type: in vivo, human; conditions: during treatment; 5 patients with hallucinations and 1 with delusions at baseline
Text: Exploratory end-points, in addition to constipation, included for example, (i) depression assessed using the Beck Depression Inventory (BDI-II) (Steer et al. 2000) and Unified Parkinson's Disease Rating Scale (UPDRS); (ii) cognition assessed using the Mini Mental State Examination (MMSE) (Palsteia et al. 2018), Unified Parkinson's Disease Rating Scale (UPDRS), and Trail Making Test (TMT); (iii) sleep and REM-behavior disorder (RBD) using a daily sleep diary, I-Button Temperature Assessment, a REM sleep behavior disorder (RBD) questionnaire (RBDQ) (Stiasny-Kolster et al. 2007), and the UPDRS; (iv) hallucinations assessed using the PD hallucinations questionnaire (PDHQ) (Papapetropoulos et al. 2008), the UPDRS, and direct questioning; (v) fatigue using the Parkinson's Disease Fatigue Scale (PFS-16) and the UPDRS; (vi) motor functions using the UPDRS; and (vii) non-motor functions using the UPDRS.
(§3) Assessments were made at baseline and at the end of the fixed dose and washout periods. Circadian system status was evaluated by continuously monitoring wrist skin temperature (Thermochron iButton DS1921H; Maxim, Dallas) following published procedures (Sarabia et al. 2008).
An exploratory analysis was done with respect to the sleep data, the body temperature data, mood, fatigue, hallucinations, cognition and other motor and non-motor symptoms of PD. […]

patients with PD [4] = assay: Circadian rhythm of wrist skin temperature (I-Button); assay type: in vivo, human; conditions: fixed dose vs baseline, 12 evaluable patients
Description: (6) I-Button Temperature Assessment. The I-Button is a small, rugged self-sufficient system that measures temperature and records the results in a protected memory section. The Thermochron I-Button DS1921H (Maxim Integrated, Dallas, Tex.) was used for skin temperature measurement. I-Buttons were programmed to sample every 10 mins., and attached to a double-sided cotton sport wrist band using Velcro, with the sensor face of the I-Button placed over the inside of the wrist, on the radial artery of the dominant hand. Subjects removed and replaced the data logger when necessary (i.e., to have a bath or shower). […] From the collected data, the mesor, amplitude, acrophase (time of peak temperature), Rayleight test (an index of interdaily stability), mean waveforms are calculated.);
as §3
Circadian rhythm of skin temperature was evaluable in 12 patients (i.e., those who had recordings that extended from baseline through washout). Circadian system functionality was evaluated by continuously monitoring wrist skin temperature using a temperature sensor (Thermochron iButton DS1921H; Maxim, Dallas, Tex.) (Sarabia et al. 2008). […]

[5] = Preclinical studies of oral squalamine (ENT-01) in rats; assay type: in vivo; conditions: rat, oral dosing of radioactive ENT-01, portal blood concentrations
Solubility in water = assay type: physicochemical; conditions: phosphate salt
αS [6] = target: T1, αS (Homo sapiens, UniProt P37840); conditions: in vitro; cited from earlier work
C. elegans αS model = conditions: cited from earlier work; for formation of αS aggregates: C. elegans model of PD in vivo
αS [7] = target: T1, αS; conditions: in vitro; cited from earlier work; remark: listed apart in the source
mouse models of PD = mouse models of PD (constipation due to overexpression of human αS); cited from earlier work
[8] = system: IPANs (intrinsic primary afferent neuron); conditions: perfusion through the lumen of isolated bowel segment from the PD mouse model; cited from earlier work
[9] = dilactate salt, single and repeat intravenous administration, alone or in combination; cited from earlier work
[10] = following systemic administration, mice, into the duodenum through the biliary tract; cited from earlier work
[11] = system: gastrointestinal motility; conditions: prior studies; cited from earlier work
[12] = Stage 2, 34 dosed, unrelated to ENT-01

**Q.** With `CC(C)[C@@H](CC[C@@H](C)[C@H]1CC[C@H]2[C@@H]3[C@H](O)C[C@H]4C[C@@H](NCCCNCCCCN)CC[C@]4(C)[C@H]3CC[C@]12C)OS(=O)(=O)O` (single isomer, unassigned) [squalamine (ENT-01)] as the molecule, how does the “Blood in urine, Mild” value [1, 12] read?
**A.** 0 n

**Q.** And the “Loss of appetite, Mild” value [1, 12]?
**A.** 0 n

**Q.** What about the “Lower GI bleed, Severe” value ([1]; Stage 2, colonic diverticulosis, polyp, patient on aspirin, Plavix and naproxen, unrelated to ENT-01) of the same molecule?
**A.** 1 n

**Q.** And the “patients with worsening of hemorrhoids” value ([1]; both stages, 1/44 patients)?
**A.** 2.2%

**Q.** What about the “patients with worsening of acid reflux” value ([1]; both stages, 2/44 patients) of the same molecule?
**A.** 4.5%

**Q.** And the patients with flatulence ([1]; both stages, 3/44 patients)?
**A.** 6.8%

**Q.** And the patients with vomiting ([1]; both stages, 3/44 patients)?
**A.** 6.8%

**Q.** What about the patients with dizziness ([1]; both stages, 8/44 patients) of the same molecule?
**A.** 18%

**Q.** And the “patients with abdominal pain” value ([1]; both stages, 11/44 patients)?
**A.** 32%

**Q.** What about the “mean dose required for a bowel (prokinetic) response” value [2] of the same molecule?
**A.** 120 mg

**Q.** What about the “hallucinations and delusions improved or disappeared” value (patients with PD [3]) of the same molecule?
**A.** 5 of 6

**Q.** And the “markers of circadian function (IS, RA, CFI, IV) of wrist skin temperature rhythm” value (patients with PD [4])?
**A.** improved all markers of healthy circadian function

**Q.** What about the “absorption from the intestine” value [5] of the same molecule?
**A.** low

**Q.** What about the solubility in water (Solubility in water; neutral pH) of the same molecule?
**A.** weakly soluble in water

**Q.** And the dissolution in water (Solubility in water; pH<3.5 (the pH of gastric fluid))?
**A.** readily dissolves

**Q.** And the “formation of αS aggregates” value (αS [6])?
**A.** inhibit the formation of aggregates of αS

**Q.** And the “formation of αS aggregates” value (C. elegans αS model)?
**A.** inhibit the formation of aggregates of αS

**Q.** And the “displacement of αS from membranes” value (αS [7])?
**A.** displace αS from membranes

**Q.** Which “formation of αS aggregates” value (αS [6]) does the source give for `CC(C)[C@@H](CC[C@@H](C)[C@H]1CC[C@H]2[C@@H]3[C@H](O)C[C@H]4C[C@@H](NCCCNCCCCN)CC[C@]4(C)[C@H]3CC[C@]12C)OS(=O)(=O)O` [squalamine] here?
**A.** inhibits the formation of αS aggregates

**Q.** What about the “formation of αS aggregates” value (C. elegans αS model) of the same molecule?
**A.** inhibits the formation of αS aggregates

**Q.** What about the “muscle paralysis / motor dysfunction” value (C. elegans αS model; C. elegans αS model) of the same molecule?
**A.** reverses motor dysfunction; also recorded: complete reversal of muscle paralysis

**Q.** What about the “effect on gastrointestinal motility” value (mouse models of PD) of the same molecule?
**A.** stimulates gastro-intestinal motility; also recorded: restores gastrointestinal motility; also recorded: reverse gastrointestinal dysmotility

**Q.** And the “effect on IPANs” value [8]?
**A.** excitation of IPANs

**Q.** What about the well tolerated dose [9] of the same molecule?
**A.** at least 300 mg/m^2

**Q.** What about the clearance and excretion [10] of the same molecule?
**A.** cleared by the liver and excreted as the intact molecule

**Q.** And the “gastrointestinal motility after intravenous administration” value [11]?
**A.** not associated with increased gastrointestinal motility
